Results taken from patent US5420289A, “Substituted indole-, indene-, pyranoindole- and tetrahydrocarbazole-alkanoic acid derivatives as inhibitors of PLA2 and lipoxygenase” (American Home Products Corporation, priority 1993, dated 1995).
Counter-ions that a name gives are not always drawn.

Columns and labels:
[1] = target: T1, human synovial fluid PLA2 (Homo sapiens, UniProt P14555); assay: in vitro isolated phospholipase A2 assay, human synovial fluid PLA2 (Example 74); assay type: biochemical; parameters: inhibition / % Inhibition, HSF (human synovial fluid): dose or concentration left out as unconfirmed; conditions: for inhibition: read-out: % Inhibition, HSF (human synovial fluid)
T1 sequence (P14555 21-144): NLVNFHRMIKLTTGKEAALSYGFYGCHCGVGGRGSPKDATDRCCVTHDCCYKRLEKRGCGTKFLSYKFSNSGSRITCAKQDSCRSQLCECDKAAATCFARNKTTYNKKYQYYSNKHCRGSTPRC
Description: (§1) The compounds of the invention are tested in an in vitro isolated phospholipase A2 assay to determine the ability of the test compounds to inhibit the release of arachidonic acid from an arachidonic acid-containing substrate by the action of phospholipase A2 enzyme from human and non-human sources.
(§2) This assay is carried out as follows:
(§3) Into a 15 mL polypropylene tube are added the following:
(§4) ^6 Two human PLA2 enzymes are used:
b) Purified human synovial fluid.
(§5) Incubate the 100mL reaction mixture for 10 minutes at 37° C. in a shaking water bath. The reaction is terminated by the addition of 2 mL tetrahydrofuran, followed by vortexlag. NH2 columns (100 mg/mL--Analytichem International) are conditioned with 0.5 mL tetrahydrofuran followed by 0.5 mL tetrahydrofuran/water (2 mL:0.1 mL, v/v).
(§6) The sample is loaded onto the columns and slowly drawn through them. The hydrolyzed arachidonic acid retained in the columns is eluted therefrom with 1 mL tetrahydrofuran/glacial acetic acid (2%). The arachidonic acid is transferred to scintillation vials and quantitated by b-counting analysis. A "total counts" sample is prepared by pipetting […] ^3 H-arachidonate E. coli directly into a scintillation vial to which is added 1 mL tetrahydrofuran. 10 mL aquasol (scintillation cocktail) is added to all samples. [formula]

[2] = target: T2, human platelet PLA2 (Homo sapiens, UniProt P14555); assay: in vitro isolated phospholipase A2 assay, human platelet PLA2 (Example 74); assay type: biochemical; parameters: dose or concentration left out as unconfirmed; conditions: read-out: % Inhibition, HP (human platelet)
T2 construct: Semi-purified human platelet acid extract PLA2; from tissue; host or cells: human platelets (semi-purified acid extract)
T2 sequence (P14555 21-144): T1 sequence (P14555 21-144)
Description: as §1, §2, §3, §4
a) Semi-purified human platelet acid extract PLA2 (in 10 mM
sodium acetate buffer, pH 4.5). Remove protein precipitate by
centrifugation at about 2200 rpm for 10 minutes.
as §5, §6

[3] = tested on: 5-lipoxygenase in human whole blood; assay: inhibition of 5-lipoxygenase in human whole blood (Example 79); assay type: cell-based; conditions: for % Inhibition of LTB4: 25 μM; for IC50: human whole blood, read-out: IC50 (inhibition of LTB4)
Description: The assay of this Example measures the ability of the compounds tested to inhibit 5-lipoxygenase in human whole blood.
as §2
Blood is obtained in 50-100 ml quantities from male donors. White blood cell counts and differentials are made. Two ml of blood are placed in a 15 ml polypropylene test tube. Compounds are solubilized in dimethylsulfoxide and diluted 1:10 in 10% bovine serum albumin in phosphate buffered saline, pH 7.4 resulting in a final dimethylsulfoxide concentration of 0.1% in the blood. Then, compounds are added to the blood in a shaking water bath at 37° C. for 10 minutes prior to the addition of […] calcium ionophore (A23187; Sigma). After ionophore administration, whole blood samples are mixed and incubated for 20 minutes at 37° C. in a shaking water bath. Incubation is terminated by placing samples in an ice bath and immediately adding ethylene glycol-bis-(b-aminoethyl ether)-N,N,N',N'-tetraacetic acid (10 mM). Samples are mixed and centrifuged at 1200 × g for 15 minutes at 4° C. Preparation of samples for evaluation by RIA or ELISA is carried out by the following protocol. Plasma is removed from sample tubes, placed in 15 ml polypropylene test tubes containing 8 ml methanol, and then vortexed to precipitate protein. Samples are stored at -70° C. overnight. The next day, samples are centrifuged at 200 × g for 15 minutes at 4° C. to pellet the precipitate. Samples are dried in a Savant speed vac concentrator, reconstituted to original volume with ice cold RIA or ELISA buffer, and stored at -70° C. until assayed. The assay for eicosanoids (LTB4, T×B2, and PGE2) is performed as described by the manufacturer of the [^3 H]-RIA kit or ELISA kit (LTB4 -Amersham, TxB2 and PGE2 - Caymen Chemical).
The total eicosanoid level in 2 ml of blood is calculated and reported as ng/10^6 neutrophils. […] Drug effects are expressed as percent change from control values.
Compounds tested in vitro are solubilized in dimethylsulfoxide and diluted 1:10 in 10% bovine serum albumin in phosphate buffer saline resulting in a final dimethylsulfoxide concentration of 0.1% i n the blood.

[4] = tested on: synthesis of LTB4 by rat glycogen-elicited polymorphonuclear leukocytes (PMN); assay: inhibition of LTB4 synthesis by rat glycogen-elicited PMN (Example 72); assay type: cell-based, rat (female Wistar); conditions: Leukocyte, at 10 mM, negative number denotes potentiation
Excerpt: This is especially true with respect to 5,12-diHETE, which is also denoted as LTB4 lsee Ford-Hitchinson, J. Roy. Soc. Med., 74, 831 (1981)]. Compounds which inhibit the PLA2 -mediated release of arachidonic acid thereby effectively prevent the oxidation of arachidonic acid to the various leukotriene products via the lipoxygenase cascade. Accordingly, the specificity of action of PLA2 inhibitors can be determined by the activity of test compounds in this assay, which measures the ability of compounds to inhibit the synthesis of LTB4 by rat glycogen-elicited polymorphonuclear leukocytes (PMN) in the presence of exogenous substrate.
The assay is carded out as follows:
(§7) Rat polymorphonuclear leukocytes (PMNs) are obtained from female Wistar rats (150-200 g) which receive an injection of 6% glycogen (10 ml i.p.). Rats are sacrificed 18-24 hours post injection by CO2 asphyxiation and the elicited cells are harvested by peritoneal lavage using physiological saline (0.9% NaC1). The exudate is centrifuged at 400 ×g for 10 minutes. The supernatant fluid is discarded and the cell pellet is resuspended to a concentration of 2.0×10^7 cells/mL in HBSS containing Ca^++ and Mg^++ and 10 mM L-cysteine.
(§8) To 1 mL aliquots of cell suspension, test drugs or vehicle are added, then preincubated at 37° C. for 10 minutes. A23187 (1 mM), [^3 H]-AA (3.0 mCi/mL) and unlabeled AA (1 mM) are then added and the samples are further incubated for 10 minutes. The reaction is terminated by centrifugation and pelleting cells. Supernatants are then analyzed by HPLC analysis on a 15 cm×4.6 mm ID supelcosil LC-18 (Supelco)(3M) column, using a two solvent system at a flow rate of 1.4 mL total flow as follows:
Gradient: (system is equilibrated with Solvent A)
Percent solvent changes are accomplished in a linear fashion.
Injections: […] of each supernatant is injected directly onto column and ^3 H arachidonic acid metabolites are monitored using an on-line radioactivity detector (Ramona, IN/U S, Fairfield, NJ).
Standards: 10^4 -2.0×10^4 dpm of eicosanoids of interest are injected in […] EtOH cocktail.
Co-chromatography with standard [^3 H] leukotriene B4 (LTB4) in medium of stimulated PMN exposed to drug is compared to that found in medium of stimulated cells exposed to no drug, generating percent inhibition.
Results are expressed as percent inhibition at a given compound dose or as an IC50 value.

[5] = tested on: cyclooxygenase (PGE2 synthesis) in rat polymorphonuclear leukocytes (PMN); assay: inhibition of PGE2 synthesis (cyclooxygenase) by rat glycogen-elicited PMN (Example 73); assay type: cell-based, rat (female Wistar); conditions: Leukocyte, at 10 mM, read-out: % Inhibition (PGE2 synthesis), symbol only
Description: as §7, §8
In this assay, the procedure of Example 72 is carried out as described. However, in order to determine cyclooxygenase activity, the samples are cochromatographed with authentic reference [^3 H]-PGE2.
The results be calculated as in Example 72 and presented below: […]

| SMILES | inhibition [1] [%] | inhibition [2] [%] | IC50 [3] [µM] | IC50 ([1]; Table III, read-out: IC50 HSF (human synovial fluid)) [µM] | % Inhibition of LTB4 [3] [%] | inhibition at 10000 µM [4] [%] | inhibition at 10000 µM [5] [%] |
| --- | --- | --- | --- | --- | --- | --- | --- |
| Cc1c(CCO)c2cc(OCc3csc(-c4ccccc4)n3)ccc2n1Cc1ccccc1 [Example 55, 5-[(2-Phenyl-4-thiazolyl)methoxy]-1-(phenylmethyl)-2-methyl-1H-indole-3-ethanol] | 4 | 13 |  |  | 19 |  |  |
| Cc1c(CC(=O)O)c2cc(OCc3csc(-c4ccccc4)n3)ccc2n1CCCc1ccccc1 [Example 63, 5-[(2-Phenyl-4-thiazolyl)methoxy]-1-(3-phenylpropyl)-2methyl-1H-indole-3-acetic acid] | 34 | 2 |  |  |  |  |  |
| Cc1c(CC(N)=O)c2cc(OCc3nc4ccccc4s3)ccc2n1Cc1ccc(Cl)cc1 [Example 45, 5-(2-Benzothiazolylmethoxy)-1-[(4-chlorophenyl)methyl]-2-methyl-1H-indole-3-acetamide] | 23 | 33 |  |  |  |  |  |
| Cc1c(CC(=O)NO)c2cc(OCc3nc4ccccc4s3)ccc2n1Cc1ccc(Cl)cc1 [Example 46, 5-(2-Benzothiazolylmethoxy)-1-[(4-chlorophenyl)methyl]-N-hydroxyl-2-methyl-1H-indole-3-acetamide] | 48 | 13 | 14.9 |  | 30 |  |  |
| COc1cccc(Cn2c(C)c(CC(=O)O)c3cc(OCc4csc(-c5ccccc5)n4)ccc32)c1 [Example 60, 5-[(2-Phenyl-4-thiazolyl)methoxy)-1-[[(3-methoxy)phenyl]methyl]-2-methyl-1H-indole-3-acetic acid] | 84 | 3 |  |  | 35 |  |  |
| Cc1c(CC(=O)NOCc2ccccc2)c2cc(OCc3nc4ccccc4s3)ccc2n1Cc1ccc(Cl)cc1 [Example 48, 5-(2-Benzothiazolylmethoxy)-1-[(4-chlorophenyl)methyl]-N-(phenylmethoxy)-2-methyl-1H-indole-3-acetamide] | 54 | 4 |  |  |  |  |  |
| Cc1c(CC(=O)O)c2cc(OCc3csc(-c4ccccc4)n3)ccc2n1Cc1ccc(C(C)(C)C)cc1 [Example 62, 5-[(2-Phenyl-4-thiazolyl)methoxy]-1-[[4-(1,1-dimethylethyl)phenyl]methyl]-2-methyl-1H-indole-3-acetic acid hemihydrate] | 30 | 3 |  |  |  |  |  |

Now from value to compound, other results behind:

| inhibition [1] [%] | inhibition [2] [%] | IC50 [3] [µM] | IC50 ([1]; Table III, read-out: IC50 HSF (human synovial fluid)) [µM] | SMILES | % Inhibition of LTB4 [3] [%] | inhibition at 10000 µM [4] [%] | inhibition at 10000 µM [5] [%] |
| --- | --- | --- | --- | --- | --- | --- | --- |
| 0 | 2 |  |  | CCOC(=O)Cc1c(C)n(Cc2ccc(Cl)cc2)c2ccc(OCc3csc(-c4ccc(Cl)cc4)n3)cc12 [Example 68, 5-[[2-(4-Chlorophenyl)-4-thiazolyl]methoxy]-1-[(4-chlorophenyl)methyl]-2-methyl-1H-indole-3-acetic acid ethyl ester] |  |  |  |
| 54 | 8 |  |  | Cc1c(CC(=O)O)c2cc(OCc3csc(-c4ccc(Cl)cc4)n3)ccc2n1Cc1ccc(Cl)cc1 [Example 69, 5-[[2-(4-Chlorophenyl)-4-thiazolyl]methoxy]-1-[(4chlorophenyl)methyl]-2-methyl-1H-indole-3-acetic acid] |  |  |  |
| 4 | 6 | 12.3 |  | Cc1c(CC(=O)N(C)O)c2cc(OCc3nc4ccccc4s3)ccc2n1Cc1ccc(Cl)cc1 [Example 49, 5-(2-Benzothiazolylmethoxy)-1-[(4-chlorophenyl)methyl]N-hydroxyl-N,2-dimethyl-1H -indole-3-acetamide] | 61 |  |  |
| 91 | 44 |  |  | Cc1c(CC(=O)O)c2cc(OCc3coc(-c4ccccc4)n3)ccc2n1Cc1ccccc1 [Example 71, 5-[(2-Phenyl-4-oxazolyl)methoxy]-1-(phenylmethyl)-2-methyl-1H-indole-3-acetic acid hemihydrate.] |  |  |  |
|  | 2 |  |  | CC(=O)OCCc1c(C)n(Cc2ccccc2)c2ccc(OCc3csc(-c4ccccc4)n3)cc12 [Example 56, 5-[(2-Phenyl-4-thiazolyl)methoxy]-1-(phenylmethyl)-2-methyl-1H-indole-3-ethanol acetate ester] | 2 |  |  |
| 46 |  |  | 4.1 | Cc1c(CC(=O)O)c2cc(OCc3ccc4ccccc4n3)ccc2n1Cc1ccc(Cl)cc1 [Example 16, 1-[(4-Chlorophenyl)methyl]-2-methyl-5-(2-quinolinylmethoxy)-1H-indole-3-acetic acid hydrochloride quarter hydrate] | 18 | 96 | < 0 |
| 6 | 1 |  |  | CCOC(=O)Cc1c(C)n(Cc2ccc3ccccc3c2)c2ccc(OCc3csc(-c4ccccc4)n3)cc12 [Example 66, 5-[(2-Phenyl-4-thiazolyl)methoxy]-1-(2-naphthalenylmethyl)-2-methyl-1H-indole-3acetic acid ethyl ester] |  |  |  |
| 4 | 1 |  |  | CCOC(=O)Cc1c(C)n(Cc2csc(-c3ccc(Cl)cc3)n2)c2ccc(OCc3csc(-c4ccccc4)n3)cc12 [Example 64, 5-[(2-Phenyl-4-thiazolyl)methoxy]-1-[[2-(4-chlorophenyl)-4-thiazolyl]methyl]-2-methyl-1H-indole-3-acetic acid ethyl ester] |  |  |  |
